# Source: patent US10126316B2, “Systems and methods for the measurement of tacrolimus in oral fluids by liquid chromatography tandem mass spectrometry” (Rhode Island Council on Postsecondary Education, Statutory …, priority 2016, dated 2018)
# How the values were obtained:
# [1] = Study A: 12-hour profile of tacrolimus in oral fluid and blood; format: in vivo, human; conditions: for OF/blood Conc. (*100) / Tacrolimus Conc. in OF / Tacrolimus blood Conc.: geometric mean (95% CI)
# Protocol: Study A. Characterization of 12-hour profile of tacrolimus in OFs: The objective of this study was to obtain parallel blood and saliva samples for 12 h after the morning dose tacrolimus. On the morning of the study day, a venous blood sample (about 4 mL) was collected in ethylenediaminetetraacetic acid (EDTA) coated tubes. Simultaneously, OF samples were collected by passive drool (resting) in a siliconized plastic cup. After the administration of morning dose of immunosuppressive agents including tacrolimus, serial samples were collected at certain time points post-dose for 12-hour. All patients fasted overnight but prior to the start of sample collection, took a protein bar with their morning medication together with a glass of water. Thus, the samples obtained in this study was regarded as samples collected at non-fasting state.
# (§1) Sample extraction was preformed mixing 200 μL of the blood sample with 800 μL of precipitating solution [ZnSO4 (17.28 g/L) in water and methanol (30:70, v/v) containing 100 ng/mL ascomycin as internal standard]. After vortex mixing, samples were centrifuged for 10 min at 13,000 rpm.
# (§2) The concentration of tacrolimus in OF was measured using a validated LC-MS/MS method. […] TAC was eluted by gradient elution with 2 mM ammonium acetate/0.1 formic acid in water (mobile phase A) and in methanol (mobile phase B) at 0.4 mL/min flow rate. Initial mobile phase comprised of 50% solvent B, increased gradually to 98% over 0.5 min and maintained at this level until 1.8 min. Then mobile phase was returned to initial conditions within 10 s and maintained until the end of the run at 2.2 min to recondition the column for the next run. The elution time of TAC and internal standard was 1.0 min.
# (§3) A simple sample preparation and extraction procedure was followed. Briefly, 50 μL of homogenized OF sample was added to 100 μL of ACN precipitating solvent containing internal standard (ascomycin, 600 ng/L). After vortex mixing for 10 s, the mixture was centrifuged at 10,000 g for 5 min at 20° C. The supernatant was then transferred to an auto-sampler vial, and 10 μL was injected onto LC-MS/MS. The dynamic range of the assay was 30-4,800 pg/mL. […] The lower limit of quantification (LLOQ) for the assay was set at […] Acceptance criteria for quality controls (QCs) included in the assay was accuracy between 85-115% and CV <15%. Selectivity was assessed by inspecting the presence of noise or peaks in chromatograms blank OF samples injections (from 6 donors) and a comparison with LLOQ chromatogram.
# [2] = Tacrolimus concentration in paired oral fluid and blood samples, all samples of Example 2; format: in vivo, human
# From the text: Study population: Samples included in this study were collected during two clinical studies from stable kidney transplant recipients. Protocol for each clinical study was approved by the Institutional Review Board of Rhode Island Hospital (Providence, R.I.). On the study day, all patients underwent a physical examination by the study physician and were asked to sign an informed consent prior to sample collection. All patients were on a triple immunosuppressant regimen that included tacrolimus, prednisone, and mycophenolic acid. All blood and OF samples were kept on dry ice until transfer to the Clinical Pharmacokinetics Research Laboratory at the University of Rhode Island and subsequent storage at −80° C. until further analysis.
# Upon thawing saliva samples, an aliquot of saliva was weighed with an analytical balance and the weight was recorded to establish the drug concentration as pg/mg weight. Moreover, the pH of saliva was measured by an Orion STAR A111 pH meter equipped with Micro Electrode from Thermo Scientific (Waltham, Mass., USA). To assess and quantify possible blood contamination of OF, a transferrin kit from Salimetrics LLC (State College, Pa., USA) was used (the validated assay range is ≤6.6 mg/dL). Transferrin (TRNs) is a plasma protein (Mw=76,000) that is used as a biomarker for presence of blood in OF. Transferrin quantification was performed using SpectraMax M5e Microplate Reader (Sunnyvale, Calif., USA).
# as §1, §2, §3
# [3] = Tacrolimus concentration in oral fluid and whole blood of kidney transplant recipients by LC-MS/MS (Example 1 patient samples); format: in vivo, human
# Protocol: The chromatographic conditions were optimized and the gradient elution described here provided the best separation of TAC and IS from suppressing phospholipid ions. Chromatographic separation was achieved using a mobile phase which consisted of water containing 2 mM ammonium acetate/0.1% (v/v) formic acid (solvent A); and MeOH containing 2 mM ammonium acetate/0.1% (v/v) formic acid (solvent B). The mobile phase was delivered at 0.4 mL/min flow rate. The run cycle started at 50% solvent (B) and increased gradually to 98% over 0.5 min and was maintained at this level until 1.8 min. To re-equilibrate the column for the next run, solvent (B) decreased within 0.1 min to 50% and remained at 50% until the end of the run at 2.2 minutes. The diversion valve was set to deliver the first 0.70 min and from 1.20 min until the end of each run to waste. The elution time of TAC and IS was 1.0 min.
# Mass spectrometry detection and quantification of TAC and ASC was performed in positive electrospray ionization (ESI) and multiple reaction monitoring (MRM) modes. Intellistart tool was used to obtain initial mass spectrometry parameters in low mass resolution analysis mode followed by manual tuning to achieve highest possible sensitivity. Final mass spectrometry parameters were as following: collision energy (CE)=22 and 20 for ASC and TAC respectively, cone voltage (CV)=28, capillary voltage (kV)=1.50, source temperature (° C.)=150, cone gas flow (L/hr)=25, desolvation gas flow (L/hr)=1000, and collision gas flow (mL/min)=0.15. Ammonium adducts [M+NH4]^+ were selected as precursors for MRM with transitions (m/z, Q1→Q3) of (m/z, 809.30→756.30) and (m/z, 821.30→768.35) for ASC and TAC, respectively.
# Study protocols were approved by Institutional Review Board at Rhode Island Hospital (Providence, R.I.). After giving informed consent, kidney transplant recipients attending kidney transplant clinics were recruited. […] All blood and OF samples were kept on ice until transferred to the Biomedical and Pharmaceutical Sciences (BPS) department at University of Rhode Island and stored at −80° C. until analyzed. […]
# [4] = Stability studies of TAC in oral fluid QC samples; format: physicochemical, human; conditions: for Stability, % Accuracy, Bench top / Stability, % Accuracy, Short-term 1 weeks / Stability, % Accuracy, Short-term 4 weeks / Stability, % Accuracy, Freeze & thaw / Stability, % Accuracy, Auto-sampler 24 hrs / Stability, % Accuracy, Auto-sampler 48 hrs: N = 3; for Stability, % Accuracy, Short-term 1 weeks / Stability, % Accuracy, Short-term 4 weeks: storage at −80° C.; for Stability, % Accuracy, Freeze & thaw: three freeze and thaw cycles; for Stability, % Accuracy, Auto-sampler 24 hrs / Stability, % Accuracy, Auto-sampler 48 hrs: extracted
# Protocol: Stability studies were performed by measuring TAC concentrations in QC1 and QC3, in three replicates. Freeze and thaw (after three freeze and thaw cycles), bench-top, auto-sampler (by re-injecting one of validation batch after it was left in the auto-sampler for 24 h and 48 h), and short-term stability up to one month were investigated.
# [5] = cited from earlier work
# [6] = Study B: effect of oral fluid sample collection method on tacrolimus concentration; format: in vivo, human; conditions: geometric mean (95% CI)
# Protocol: Study B. Characterization of the effect of OF sample collection method: Blood samples were collected at pre-dose (C0) and then at two-hour after dose (C2). Patients have arrived at the hospital after an overnight fast and were remained fasted during collection of C0 samples. Matching OF samples were collected within ±5 min from blood sample time by passive drool (resting sample), after mouth rinsing with water (rinsed sample), and immediately after taking a sour candy to stimulate saliva production (stimulated sample). For the following samples, patients were asked to place a small piece of a commercial candy containing citric and tartaric acids (Sour Patch Kids, Mondelēz International, East Hanover, N.J., USA) in their mouth for 10 s with continues tongue movement. After C0 samples collection, patients were given a voucher for breakfast and were asked to report back to the study location shortly before sample collection at two-hour after dose (C2). The same process of blood and corresponding OF sample collection was followed at this time. The C2 samples were regarded as fed state.
# as §1, §2, §3
compound,measurement,setting,value
C=CC[C@@H]1/C=C(\C)C[C@H](C)C[C@H](OC)[C@H]2O[C@@](O)(C(=O)C(=O)N3CCCC[C@H]3C(=O)O[C@H](/C(C)=C/[C@@H]3CC[C@@H](O)[C@H](OC)C3)[C@H](C)[C@@H](O)CC1=O)[C@H](C)C[C@@H]2OC.O [Tacrolimus],Concentration of TAC in blood,"[1]; 80 paired samples, 10 patients, fed state",5.7 ± 2.6 ng/mL
same,Concentration of TAC in oral fluids,"[1]; 80 paired samples, 10 patients, passive drool, fed state",0.885 ± 0.65 ng/mL
same,OF/blood Conc. (*100),[1]; All other times,"14 (11, 16)"
same,Tacrolimus Conc. in OF,[1]; All other times,"783 (627, 878) pg/mL"
same,Tacrolimus blood Conc.,[1]; All other times,"5.5 (5.0, 5.9) ng/mL"
same,OF/blood Conc. (*100),[1]; Peak (C2),"11 (7, 16)"
same,Tacrolimus Conc. in OF,[1]; Peak (C2),"573 (411, 599) pg/mL"
same,Tacrolimus blood Conc.,[1]; Peak (C2),"5.5 (4.6, 6.5) ng/mL"
same,OF/blood Conc. (*100),"[1]; Trough (C0, incl. C12)","11 (7, 18)"
same,Tacrolimus Conc. in OF,"[1]; Trough (C0, incl. C12)","430 (272, 680) pg/mL"
same,Tacrolimus blood Conc.,"[1]; Trough (C0, incl. C12)","3.8 (3.1, 4.7) ng/mL"
same,Tacrolimus concentration in blood (mean±SD),[2]; 276 paired samples,7.4 ± 5 ng/mL
same,Tacrolimus concentration in blood (median),[2]; 276 paired samples,5.9 ng/mL
same,Concentration of tacrolimus in OFs (mean±SD),[2]; homogenized OFs,0.744 ± 0.666 ng/mL
same,Concentration of tacrolimus in OFs (median),[2]; homogenized OFs,0.505 ng/mL
same,Concentration of tacrolimus corrected for the weight of homogenized OF (mean±SD),[2]; in vivo,540 ± 485 pg/mg
same,Concentration of tacrolimus corrected for the weight of homogenized OF (median),[2]; in vivo,367 pg/mg
same,Concentration of TAC in OF (range),"[3]; 181 OF samples, stable transplant recipients",0.0117 to 2.8644 ng/mL
same,Calculated concentration of the one OF sample lower than LLOQ,[3]; one of 181 OF samples,around 8.5 pg/mL
same,Concentration of TAC in whole blood (range),[3]; stable transplant recipients,1.7 to 46.1 ng/mL
same,"Stability, % Accuracy, Bench top",[4]; QC1 (30 pg/mL) in OF,111.1%
same,"Stability, % Accuracy, Short-term 1 weeks",[4]; QC1 (30 pg/mL) in OF,98.4%
same,"Stability, % Accuracy, Short-term 4 weeks",[4]; QC1 (30 pg/mL) in OF,100.8%
same,"Stability, % Accuracy, Freeze & thaw",[4]; QC1 (30 pg/mL) in OF,108.2%
same,"Stability, % Accuracy, Auto-sampler 24 hrs",[4]; QC1 (30 pg/mL),105.3%
same,"Stability, % Accuracy, Auto-sampler 48 hrs",[4]; QC1 (30 pg/mL),102.5%
same,"Stability, % Accuracy, Bench top",[4]; QC3 (1200 pg/mL) in OF,98.8%
same,"Stability, % Accuracy, Short-term 1 weeks",[4]; QC3 (1200 pg/mL) in OF,98.9%
same,"Stability, % Accuracy, Short-term 4 weeks",[4]; QC3 (1200 pg/mL) in OF,102.9%
same,"Stability, % Accuracy, Freeze & thaw",[4]; QC3 (1200 pg/mL) in OF,111.9%
same,"Stability, % Accuracy, Auto-sampler 24 hrs",[4]; QC3 (1200 pg/mL),102.2%
same,"Stability, % Accuracy, Auto-sampler 48 hrs",[4]; QC3 (1200 pg/mL),105.6%
same,Stability in extracted matrix,"[4]; auto-sampler, up to 48 h",stable in extracted matrix for up to 48 h
same,Fraction of tacrolimus distributed into red blood cells,[5],About 85%
same,Fraction of total TAC in blood present as free (unbound) form,[5],1%
same,OF/blood Conc. (*100),"[6]; C0 (fasted), Resting","19 (14, 24)"
same,Tacrolimus Conc. in OF,"[6]; C0 (fasted), Resting","1003 (747, 1348) pg/mL"
same,Tacrolimus blood Conc.,"[6]; C0 (fasted), Resting","5.5 (4.7, 6.3) ng/mL"
same,OF/blood Conc. (*100),"[6]; C0 (fasted), Rinsed","11 (9, 13)"
same,Tacrolimus Conc. in OF,"[6]; C0 (fasted), Rinsed","584 (436, 782) pg/mL"
same,Tacrolimus blood Conc.,"[6]; C0 (fasted), Rinsed","5.4 (4.7, 6.3) ng/mL"
same,OF/blood Conc. (*100),"[6]; C0 (fasted), Stimulated","3 (2, 4)"
same,Tacrolimus Conc. in OF,"[6]; C0 (fasted), Stimulated","164 (119, 226) pg/mL"
same,Tacrolimus blood Conc.,"[6]; C0 (fasted), Stimulated","5.5 (4.8, 6.2) ng/mL"
same,OF/blood Conc. (*100),"[6]; C2 (fed), Resting","7 (5, 9)"
same,Tacrolimus Conc. in OF,"[6]; C2 (fed), Resting","635 (437, 923) pg/mL"
same,Tacrolimus blood Conc.,"[6]; C2 (fed), Resting","9.4 (7.6, 11.7) ng/mL"
same,OF/blood Conc. (*100),"[6]; C2 (fed), Rinsed","5 (4, 7)"
same,Tacrolimus Conc. in OF,"[6]; C2 (fed), Rinsed","468 (347, 630) pg/mL"
same,Tacrolimus blood Conc.,"[6]; C2 (fed), Rinsed","9.0 (7.4, 11.0) ng/mL"
same,OF/blood Conc. (*100),"[6]; C2 (fed), Stimulated","3 (2, 4)"
same,Tacrolimus Conc. in OF,"[6]; C2 (fed), Stimulated","235 (167, 330) pg/mL"
same,Tacrolimus blood Conc.,"[6]; C2 (fed), Stimulated","8.8 (7.6, 10.2) ng/mL"
